{
  "source": "patent US20010009917A1",
  "about": "“Methods and compositions for treating asthma, atherosclerosis and inflammatory diseases using optically pure (-zileuton” (priority 1993, published 2001)",
  "origin": "cited, not measured here",
  "key": {"[1]": {"conditions": "dog liver microsomes"}, "[2]": {"system": "beta-adrenergic"}, "[3]": {"target": "T1, human platelet 12-lipoxygenase (Homo sapiens, UniProt P18054)", "T1 construct": "the supernatant containing the 12-lipoxygenase activity stored frozen until used; from tissue; host or cells: human platelets, sonicated lysate supernatant", "T1 sequence (P18054 1-663)": "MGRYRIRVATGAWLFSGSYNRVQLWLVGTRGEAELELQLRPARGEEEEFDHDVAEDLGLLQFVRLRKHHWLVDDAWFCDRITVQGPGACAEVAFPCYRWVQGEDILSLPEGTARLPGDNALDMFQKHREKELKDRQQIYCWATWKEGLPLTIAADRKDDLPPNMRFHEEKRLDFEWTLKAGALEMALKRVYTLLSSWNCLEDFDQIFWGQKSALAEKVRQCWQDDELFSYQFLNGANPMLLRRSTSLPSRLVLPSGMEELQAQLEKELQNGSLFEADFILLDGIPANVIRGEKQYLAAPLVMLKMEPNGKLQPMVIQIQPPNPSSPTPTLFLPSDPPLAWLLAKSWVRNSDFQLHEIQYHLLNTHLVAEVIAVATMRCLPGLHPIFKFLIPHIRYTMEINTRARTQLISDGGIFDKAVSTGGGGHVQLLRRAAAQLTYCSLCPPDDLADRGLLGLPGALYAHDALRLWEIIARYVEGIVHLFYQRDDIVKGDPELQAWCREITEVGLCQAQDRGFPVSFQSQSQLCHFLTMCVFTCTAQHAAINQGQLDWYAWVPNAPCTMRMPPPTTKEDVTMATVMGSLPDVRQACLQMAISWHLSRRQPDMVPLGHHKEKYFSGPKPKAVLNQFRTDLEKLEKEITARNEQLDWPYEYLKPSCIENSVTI"}, "[4]": {"target": "T2, sheep seminal vesicle cyclooxygenase (Ovis aries, UniProt P05979)", "T2 construct": "incubations with sheep seminal vesicle gland microsomes (2 mg/mL); from tissue; host or cells: sheep seminal vesicle gland microsomes", "T2 sequence (P05979 25-600)": "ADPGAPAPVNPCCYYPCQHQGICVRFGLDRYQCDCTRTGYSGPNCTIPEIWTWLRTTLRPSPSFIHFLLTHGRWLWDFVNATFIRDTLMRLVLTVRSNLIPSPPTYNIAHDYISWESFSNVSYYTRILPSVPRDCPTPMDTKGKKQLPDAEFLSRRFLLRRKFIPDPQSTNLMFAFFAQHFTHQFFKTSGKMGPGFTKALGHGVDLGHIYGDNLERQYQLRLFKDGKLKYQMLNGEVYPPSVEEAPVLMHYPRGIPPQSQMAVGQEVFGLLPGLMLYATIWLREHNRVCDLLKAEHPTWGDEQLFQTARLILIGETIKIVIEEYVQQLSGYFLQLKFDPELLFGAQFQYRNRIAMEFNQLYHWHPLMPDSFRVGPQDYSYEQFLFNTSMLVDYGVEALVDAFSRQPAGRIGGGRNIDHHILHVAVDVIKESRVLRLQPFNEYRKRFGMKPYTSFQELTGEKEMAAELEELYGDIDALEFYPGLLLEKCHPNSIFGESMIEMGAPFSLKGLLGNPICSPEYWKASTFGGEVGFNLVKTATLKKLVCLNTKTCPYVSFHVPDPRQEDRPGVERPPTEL"}, "[5]": {"system": "LTB4", "conditions": "human volunteers, 800 mg p.o. twice per day for four weeks"}},
  "data": [
    {"smiles": "C[C@@H](c1cc2ccccc2s1)N(O)C(N)=O", "note": "[S-(−)-zileuton]", "values": [
      {"measurement": "glucuronidation", "setting": "[1]", "value": "selective glucuronidation"}
    ]},
    {"smiles": "CC(C)NC[C@H](O)COc1cccc2ccccc12", "note": "[propranolol]", "values": [
      {"measurement": "potency relative to the D-enantiomer", "setting": "[2]", "value": 100, "unit": "times"}
    ]},
    {"smiles": "C[C@H](c1cc2ccccc2s1)N(O)C(N)=O", "note": "[(+)-zileuton, (+) isomer of N-(1-benzo[b]thien-2-ylethyl)-N-hydroxyurea]", "values": [
      {"measurement": "effect on glucuronidation of S-(−)-zileuton", "setting": "[1]", "value": "enhancement of that reaction"}
    ]},
    {"smiles": "CC(c1cc2ccccc2s1)N(O)C(N)=O", "note": "(racemic) [racemic zileuton, N-(1-benzo[b]thien-2-ylethyl)-N-hydroxyurea]", "values": [
      {"measurement": "inhibitory effect on human platelet 12-lipoxygenase", "setting": "[3]", "value": "little inhibitory effect"},
      {"measurement": "inhibitory effect on sheep seminal vesicle cyclooxygenase", "setting": "[4]", "value": "little inhibitory effect"},
      {"measurement": "patients reporting an adverse event during the four week trial", "setting": "four week trial", "value": "One hundred"},
      {"measurement": "improvement in symptoms of rheumatoid arthritis", "setting": "human volunteers, 800 mg p.o. twice per day for four weeks", "value": "statistically significant improvement"},
      {"measurement": "decreases in LTB4", "setting": "[5]", "value": "75 to 85", "unit": "%"}
    ]}
  ]
}
